According to publication PMC3665846, “Evolution of a Potential Hormone Antagonist following Gene Splicing during Primate Evolution” (PLoS ONE, 2013):
No end group written: not given here.

Legend:
CCKA receptor [1] = experiment: CCKA receptor luciferase reporter assay, agonism; assay type: cell-based; conditions: 18 h, CRE-, SRE-, NFAT-
Method: (§1) HEK293T cells seeded in 24-well plates were co-transfected by various luciferase reporters (30 ng), the pSV-β-Gal plasmid (3 ng), and the CCKA or CCKB receptor (30 ng). After 1 day, cells were treated in serum-free media for another 18 h with increasing doses of the CCK-8 or CCKsv peptide. For the estimation of antagonistic activities, cells were pre-incubated (30 min.) with the CCKsv peptide before treatment with CCK8 for 18 h. Luciferase activities were determined using luciferase assay kits (Promega) and normalized using β-galactosidase activities. All experiments were performed at least three times in triplicates. Data were analyzed using Graphpad Prism 5.0.

SK-N-MC cells = experiment: Ewing tumor cell growth, SK-N-MC, crystal violet staining; assay type: cell-based, human; conditions: CCK-8 0.1 uM, 6 days; for suppression of CCK-stimulated growth, SK-N-MC: serum-free, CCKsv 30 min pre-treatment, at least 3 independent experiments
Method: (§2) SK-N-MC and SK-PN-DW cells (1×10^5) were plated in 12-well plates and allowed to attach for 24–36 h. Cells were then cultured in serum-free media with 0.1 uM of the CCK-8 peptide with or without the CCKsv peptide. Fresh media containing peptides were replaced every two days. […] Cell growth was determined by crystal violet staining.

CCKB receptor [2] = experiment: CCKB receptor luciferase reporter assay, agonism; assay type: cell-based; conditions: 18 h
Method: as §1

SK-PN-DW cells = experiment: Ewing tumor cell growth, SK-PN-DW, crystal violet staining; assay type: cell-based; conditions: CCK-8 0.1 uM, 6 days; for suppression of CCK-stimulated growth, SK-PN-DW: serum-free, CCKsv 30 min pre-treatment, at least 3 independent experiments
Method: as §2

[3] = test system: various cancer cell lines; conditions: ref [23]–[27]; cited from earlier work
Method: Because treatment with a CCK antagonist inhibits proliferation of Ewing tumor cells, CCK antagonist could represent a new therapeutic approach in the management of Ewing's tumor patients. To further confirm the potential antagonist function of CCKsv, we checked if CCKsv could inhibit Ewing tumor cell growth stimulated by CCK. Two Ewing tumor cell lines (SK-N-MC and SK-PN-DW) were cultured with the CCK-8 peptide (0.1 uM) in the presence or absenc ...

[4] = test system: release of pancreatic enzymes and the contraction of the gallbladder; conditions: ref [10]–[12]; cited from earlier work
From the text: Alternative splicing allows the generation of various gene products with different functions from a single gene and is a major mechanism of generating protein diversity in eukaryotes [1]–[5]. At least half, or more, of mammalian genes can be alternatively spliced, [2]. Thus, alternative splicing emerges as a major mechanism of generating protein diversity and splicing of coding regions in peptide hormone genes often results in additional protein domains. Calcitonin and calcitonin-related polypeptide represent the classical example of novel hormone evolution from the same gene ...

CCKA receptor [5] = experiment: CCKA receptor luciferase reporter assay, antagonism of CCK-8; assay type: cell-based; conditions: CCKsv 0.1 uM or 1 uM, 30 min pre-incubation
Method: as §1

LGR7 = experiment: relaxin-stimulated CRE-luciferase activity in LGR7-expressing cells (specificity control); assay type: cell-based; conditions: CCKsv 0.1 uM or 1 uM, co-treatment with relaxin, Fig. S6
CCKB receptor [6] = experiment: CCKB receptor luciferase reporter assay, antagonism of CCK-8; assay type: cell-based
Method: as §1

## CCK-8: CCK-8 peptide purchased from Phoenix Pharmaceuticals Inc. [reference compound]
CCKA receptor [1]; HEK293T cells co-transfected with reporter, pSV-β-Gal and CCKA, serum-free, SRF-RE reporters screened, normalized to β-galactosidase, at least three times in triplicates
  stimulation of luciferase reporters by CCK-8 via CCKA: stimulated CRE- and SRF-RE reporters via CCKA
SK-N-MC cells; serum-free media, replaced every two days, Fig. 4A
  Ewing tumor cell growth with CCK-8, SK-N-MC: growth stimulated by CCK-8 peptide
CCKB receptor [2]; HEK293T cells co-transfected with reporter, pSV-β-Gal and CCKB, serum-free, CRE-, SRE-, NFAT-, SRF-RE reporters screened, normalized to β-galactosidase, at least three times in triplicates
  stimulation of luciferase reporters by CCK-8 via CCKB: stimulation of CRE-, SRE- and SRF-RE reporters
CCKB receptor [2]; HEK293T, CRE-luciferase, CCKB, compared with other reporter/receptor combinations (Fig. 3C)
  responsiveness to CCK-8 of cells with CRE reporter and CCKB receptor: most responsive to CCK-8 peptide stimulation
SK-PN-DW cells; serum-free media, replaced every two days, Fig. 4B
  Ewing tumor cell growth with CCK-8, SK-PN-DW: growth stimulated by CCK-8 peptide

## Cholecystokinin [CCK]
[3]
  cell proliferation in cancer cell lines: induces cell proliferation
[4]
  release of pancreatic enzymes and gallbladder contraction: induce the release of pancreatic enzymes and the contraction of the gallbladder

## GKNAASPSLTSALVPRLPMLTLFSSASLMGMTSL-amidated (GKNAASPSLTSALVPRLPMLTLFSSASLMGMTSL-NH2) [CCKsv, splicing variant of human CCK; predicted mature peptide chemically synthesized, C-terminally amidated]
CCKA receptor [1]; HEK293T + CCKA, SRF-RE-luciferase (Gs, Gi, Gq, G12), Fig. S5
  stimulation of G protein pathways by CCKsv via CCKA (agonism): not capable of stimulating different G proteins (Gs, Gi, Gq, and G12)
SK-N-MC cells; 0.1 uM CCKsv, Fig. 4A
  suppression of CCK-stimulated growth, SK-N-MC: 22%
SK-N-MC cells; 1 uM CCKsv, Fig. 4A
  suppression of CCK-stimulated growth, SK-N-MC: 38%
SK-N-MC cells; CCKsv 0.1 uM or 1 uM
  effect of CCKsv on CCK-stimulated growth, SK-N-MC: dose-dependently reduced CCK-stimulated growth
CCKB receptor [2]; HEK293T + CCKB, CRE-, SRE-, NFAT-, SRF-RE-luciferase (Gs, Gi, Gq, G12), Fig. S5
  stimulation of G protein pathways by CCKsv via CCKB (agonism): not capable of stimulating different G proteins (Gs, Gi, Gq, and G12)
SK-PN-DW cells; 0.1 uM CCKsv, Fig. 4B
  suppression of CCK-stimulated growth, SK-PN-DW: 18%
SK-PN-DW cells; 1 uM CCKsv, Fig. 4B
  suppression of CCK-stimulated growth, SK-PN-DW: 31%
SK-PN-DW cells; CCKsv 0.1 uM or 1 uM
  effect of CCKsv on CCK-stimulated growth, SK-PN-DW: dose-dependently reduced CCK-stimulated growth
CCKA receptor [5]; Fig. 3A, HEK293T, increasing doses of CCK-8, 18 h
  inhibition of CCK-8-stimulated CRE luciferase activity, CCKA: inhibited
CCKA receptor [5]; Fig. 3B, HEK293T, increasing doses of CCK-8, 18 h
  inhibition of CCK-8-stimulated SRF luciferase activity, CCKA: inhibited
CCKA receptor [5]; HEK293T + CCKA, then CCK-8 (various doses) 18 h, luciferase
  suppression of CCK8 actions by CCKsv pretreatment, CCKA: dose-dependent suppression of CCK8 actions
LGR7
  effect on luciferase activity stimulated by relaxin: did not alter relaxin signaling
CCKB receptor [6]; Fig. 3C, HEK293T + CCKB, CRE reporter, 1 uM CCKsv (30 min pre-incubation), CCK-8 30 nM, 18 h
  suppression of CCK-8-stimulated CRE luciferase activity: ~60%
CCKB receptor [6]; Fig. 3C, HEK293T, CCKsv 0.1 uM or 1 uM, 30 min pre-incubation, increasing doses of CCK-8, 18 h
  inhibition of CCK-8-stimulated CRE luciferase activity, CCKB: inhibited
CCKB receptor [6]; Fig. 3D, HEK293T + CCKB, SRF reporter, 1 uM CCKsv (30 min pre-incubation), CCK-8 30 nM, 18 h
  suppression of CCK-8-stimulated SRF luciferase activity: ~60%
CCKB receptor [6]; Fig. 3D, HEK293T, CCKsv 0.1 uM or 1 uM, 30 min pre-incubation, increasing doses of CCK-8, 18 h
  inhibition of CCK-8-stimulated SRF luciferase activity, CCKB: inhibited
CCKB receptor [6]; Fig. 3E, HEK293T, CCKsv 0.1 uM or 1 uM, 30 min pre-incubation, increasing doses of CCK-8, 18 h
  inhibition of CCK-8-stimulated SRE luciferase activity, CCKB: inhibited
CCKB receptor [6]; HEK293T + CCKB, CCKsv 0.1 uM or 1 uM, 30 min pre-incubation, then CCK-8 (various doses) 18 h, luciferase
  suppression of CCK8 actions by CCKsv pretreatment, CCKB: dose-dependent suppression of CCK8 actions
